# Measured values as given in ChEMBL document CHEMBL1134707, “Orally active docetaxel analogue: synthesis of 10-deoxy-10-C-morpholinoethyl docetaxel analogues” (2001).
# Key:
# PC-12 [1] = assay: Cytotoxic activity against PC-12 human non-small cell lung cancer cell line; format: functional; settings: Rattus norvegicus
# PC-6 [2] = assay: Cytotoxic activity against PC-6 human small cell lung cancer; format: functional
# PC-6 [3] = assay: Cytotoxic activity against PC-6/VCR29-9 vincristine resistant cell line expressing P-gp; format: functional; settings: Homo sapiens
# Mus musculus [4] = assay: Antitumor activity against B16 melanoma at dose of 600 mg/kg by po administration in mice and mortality rate is reported; format: functional
# Mus musculus [5] = assay: Antitumor activity against B16 melanoma in mice at dose of 100 mg/kg by iv administration and IR value is reported; format: functional
# Mus musculus [6] = assay: Antitumor activity against B16 melanoma in mice at dose of 100 mg/kg by iv administration and body weight loss is reported; format: functional
# Mus musculus [7] = assay: Antitumor activity against B16 melanoma in mice at dose of 600 mg/kg by po administration and body weight loss is reported; format: functional
# Mus musculus [8] = assay: Antitumor activity against B16 melanoma at dose of 100 mg/kg by iv administration in mice and mortality rate is reported; format: functional
# Mus musculus [9] = assay: Antitumor activity against B16 melanoma in mice at dose of 600 mg/kg by po administration and IR value is reported; format: functional
# PC-12 [10] = assay: Cytotoxic activity against PC-12 human non-small cell lung cancer cell line
# Mus musculus [11] = assay: Antitumor activity against B16 melanoma at dose of 22.2 mg/kg by po administration in mice and mortality rate is reported; format: functional
# Mus musculus [12] = assay: Antitumor activity against B16 melanoma in mice at dose of 33.3 mg/kg by iv administration and body weight loss is reported; format: functional
# Mus musculus [13] = assay: Antitumor activity against B16 melanoma in mice at dose of 33.3 mg/kg by iv administration and IR value is reported; format: functional
# Mus musculus [14] = assay: Antitumor activity against B16 melanoma in mice at dose of 22.2 mg/kg by iv administration and body weight loss is reported; format: functional
# Mus musculus [15] = assay: Antitumor activity against B16 melanoma in mice at dose of 50 mg/kg by po administration and body weight loss is reported; format: functional
# Mus musculus [16] = assay: Antitumor activity against B16 melanoma in mice at dose of 112.5 mg/kg by po administration and body weight loss is reported; format: functional
# Mus musculus [17] = assay: Antitumor activity against B16 melanoma in mice at dose of 50 mg/kg by iv administration and IR value is reported; format: functional
# Mus musculus [18] = assay: Antitumor activity against B16 melanoma in mice at dose of 50 mg/kg by po administration and IR value is reported; format: functional
# Mus musculus [19] = assay: Antitumor activity against B16 melanoma at dose of 33.3 mg/kg by po administration in mice and mortality rate is reported; format: functional
# Mus musculus [20] = assay: Antitumor activity against B16 melanoma in mice at dose of 33.3 mg/kg by po administration and IR value is reported; format: functional
# Mus musculus [21] = assay: Antitumor activity against B16 melanoma at dose of 33.3 mg/kg by iv administration in mice and mortality rate is reported; format: functional
# Mus musculus [22] = assay: Antitumor activity against B16 melanoma at dose of 75 mg/kg by po administration in mice and mortality rate is reported; format: functional
# Mus musculus [23] = assay: Antitumor activity against B16 melanoma in mice at dose of 75 mg/kg by iv administration and body weight loss is reported; format: functional
# Mus musculus [24] = assay: Antitumor activity against B16 melanoma in mice at dose of 22.2 mg/kg by po administration and body weight loss is reported; format: functional
# Mus musculus [25] = assay: Antitumor activity against B16 melanoma in mice at dose of 112.5 mg/kg by po administration and IR value is reported; format: functional
# Mus musculus [26] = assay: Antitumor activity against B16 melanoma in mice at dose of 75 mg/kg by po administration and IR value is reported; format: functional
# Mus musculus [27] = assay: Antitumor activity against B16 melanoma at dose of 75 mg/kg by iv administration in mice and mortality rate is reported; format: functional
# Mus musculus [28] = assay: Antitumor activity against B16 melanoma at dose of 50 mg/kg by po administration in mice and mortality rate is reported; format: functional
# Mus musculus [29] = assay: Antitumor activity against B16 melanoma in mice at dose of 75 mg/kg by iv administration and IR value is reported; format: functional
# Mus musculus [30] = assay: Antitumor activity against B16 melanoma in mice at dose of 33.3 mg/kg by po administration and body weight loss is reported; format: functional
# Mus musculus [31] = assay: Antitumor activity against B16 melanoma in mice at dose of 75 mg/kg by po administration and body weight loss is reported; format: functional
# Mus musculus [32] = assay: Antitumor activity against B16 melanoma in mice at dose of 22.2 mg/kg by po administration and IR value is reported; format: functional
# Mus musculus [33] = assay: Antitumor activity against B16 melanoma in mice at dose of 50 mg/kg by iv administration and body weight loss is reported; format: functional
# Mus musculus [34] = assay: Antitumor activity against B16 melanoma at dose of 112.5 mg/kg by po administration in mice and mortality rate is reported; format: functional
# Mus musculus [35] = assay: Antitumor activity against B16 melanoma at dose of 50 mg/kg by iv administration in mice and mortality rate is reported; format: functional
# Mus musculus [36] = assay: Antitumor activity against B16 melanoma in mice at dose of 22.2 mg/kg by iv administration and IR value is reported; format: functional
structure (smiles),measurement,setting,value
CC(=O)O[C@@]12CO[C@@H]1C[C@H](OCF)C1(C)C(=O)[C@H](CCN3CCOCC3)C3=C(C)[C@@H](OC(=O)[C@H](O)[C@@H](NC(=O)OC(C)(C)C)c4ccccc4)C[C@@](O)([C@@H](OC(=O)c4ccccc4)C12)C3(C)C (some centres not stated),GI50,PC-12 [1],1.5 ng/mL
same,GI50,PC-6 [2],0.246 ng/mL
same,GI50,PC-6 [3],40.4 ng/mL
CC(=O)O[C@@]12CO[C@@H]1C[C@H](O)[C@@]1(C)C(=O)[C@H](O)C3=C(C)[C@@H](OC(=O)[C@H](O)[C@@H](NC(=O)OC(C)(C)C)c4ccccc4)C[C@@](O)([C@@H](OC(=O)c4ccccc4)[C@H]21)C3(C)C.O.O.O [DOCETAXEL],Mortality,Mus musculus [4],0
same,IR,Mus musculus [5],95.1%
same,BWL,Mus musculus [6],<0%
same,BWL,Mus musculus [7],<0%
same,GI50,PC-6 [2],0.408 ng/mL
same,GI50,PC-6 [3],39.6 ng/mL
same,Mortality,Mus musculus [8],0
same,IR,Mus musculus [9],6.2%
same,GI50,PC-12 [10],11.7 ng/mL
CC(=O)O[C@@]12CO[C@@H]1CC[C@@]1(C)C(=O)[C@H](CCN3CCOCC3)C3=C(C)[C@@H](OC(=O)[C@H](O)[C@@H](NC(=O)OC(C)(C)C)c4ccccc4)C[C@@](O)([C@@H](OC(=O)c4ccccc4)C12)C3(C)C (some centres not stated),GI50,PC-6 [2],0.761 ng/mL
same,GI50,PC-6 [3],20.4 ng/mL
same,GI50,PC-12 [10],1.47 ng/mL
CC(=O)O[C@@]12CO[C@@H]1C[C@@H](F)[C@@]1(C)C(=O)[C@H](CCN3CCOCC3)C3=C(C)[C@@H](OC(=O)[C@H](O)[C@@H](NC(=O)OC(C)(C)C)c4ccccc4)C[C@@](O)([C@@H](OC(=O)c4ccccc4)C12)C3(C)C (some centres not stated),GI50,PC-6 [2],0.379 ng/mL
same,GI50,PC-6 [3],16.2 ng/mL
same,GI50,PC-12 [10],2.55 ng/mL
CC(=O)O[C@@]12CO[C@@H]1C[C@H](O)[C@@]1(C)C(=O)[C@H](CCN3CCOCC3)C3=C(C)[C@@H](OC(=O)[C@H](O)[C@@H](NC(=O)OC(C)(C)C)c4ccccc4)C[C@@](O)([C@@H](OC(=O)c4ccccc4)[C@H]21)C3(C)C,GI50,PC-6 [2],1.72 ng/mL
same,GI50,PC-6 [3],76.3 ng/mL
same,GI50,PC-12 [10],21.5 ng/mL
CC(=O)O[C@@]12CO[C@@H]1CC1C[C@@]13C(=O)[C@H](CCN1CCOCC1)C1=C(C)[C@@H](OC(=O)[C@H](O)[C@@H](NC(=O)OC(C)(C)C)c4ccccc4)C[C@@](O)([C@@H](OC(=O)c4ccccc4)C32)C1(C)C (some centres not stated),GI50,PC-6 [2],0.873 ng/mL
same,GI50,PC-6 [3],38.6 ng/mL
same,GI50,PC-12 [10],3.56 ng/mL
CC(=O)O[C@@]12CO[C@@H]1C=C[C@@]1(C)C(=O)[C@H](CCN3CCOCC3)C3=C(C)[C@@H](OC(=O)[C@H](O)[C@@H](NC(=O)OC(C)(C)C)c4ccccc4)C[C@@](O)([C@@H](OC(=O)c4ccccc4)C12)C3(C)C (some centres not stated),GI50,PC-6 [2],0.5 ng/mL
same,GI50,PC-6 [3],18 ng/mL
same,GI50,PC-12 [10],0.824 ng/mL
CO[C@H]1C[C@H]2OC[C@@]2(OC(C)=O)[C@H]2[C@H](OC(=O)c3ccccc3)[C@]3(O)C[C@H](OC(=O)[C@H](O)[C@@H](NC(=O)OC(C)(C)C)c4ccccc4)C(C)=C([C@@H](CCN4CCOCC4)C(=O)[C@]12C)C3(C)C,Mortality,Mus musculus [11],0
same,BWL,Mus musculus [12],9.4%
same,IR,Mus musculus [13],94.4%
same,BWL,Mus musculus [14],5.7%
same,BWL,Mus musculus [15],<1.7%
same,BWL,Mus musculus [16],<20%
same,IR,Mus musculus [17],98.6%
same,IR,Mus musculus [18],96.2%
same,GI50,PC-6 [2],0.266 ng/mL
same,Mortality,Mus musculus [19],0
same,GI50,PC-6 [3],9.01 ng/mL
same,IR,Mus musculus [20],82.8%
same,Mortality,Mus musculus [21],0
same,Mortality,Mus musculus [22],0
same,BWL,Mus musculus [23],19.2%
same,BWL,Mus musculus [24],<0%
same,IR,Mus musculus [25],99%
same,IR,Mus musculus [26],98.3%
same,Mortality,Mus musculus [8],0
same,Mortality,Mus musculus [27],5
same,Mortality,Mus musculus [28],0
same,IR,Mus musculus [29],99.4%
same,BWL,Mus musculus [30],0.9%
same,BWL,Mus musculus [31],5%
same,IR,Mus musculus [32],81.7%
same,BWL,Mus musculus [33],18%
same,Mortality,Mus musculus [34],4
same,Mortality,Mus musculus [35],0
same,IR,Mus musculus [36],93.7%
same,GI50,PC-12 [10],0.756 ng/mL
